Measured values as given in ChEMBL document CHEMBL3885861, “Open TG-GATES”.

Species on record: Rattus norvegicus
Test: Open TG-GATES - Regimen: Single
Type: toxicity, organism-based, Sprague-Dawley
Parameters: regimen Single, gender Male, age 6 weeks
Settings: in vivo, po, 600 mg/kg, route gavage, dose level High; for APTT / Bas / Eos / Fbg / Hb / Ht / Lym / MCH / MCHC / MCV / Mono / Neu / PT / Plat / RBC / Ret / WBC: tissue Blood; for KIDNEY_L / KIDNEY_R / KIDNEY_TOTAL: tissue Kidney; for LIVER: tissue Liver; for A/G / ALP / ALT / AST / BUN / CRE / Ca / Cl / DBIL / GLC / IP / K / LDH / Na / PL / RALB / TBIL / TC / TG / TP / gamma-GTP: tissue Plasma

CCOC(=O)[C@H](CCc1ccccc1)N[C@@H](C)C(=O)N1CCC[C@H]1C(=O)O
TERMINAL_BW (3 h): 218.7 g
APTT (3 h): 16.5 s
Bas (3 h): 0%
Eos (3 h): 1.4%
Fbg (3 h): 212 mg/dL
Hb (3 h): 13.3 g/dL
Ht (3 h): 40.4%
Lym (3 h): 74%
MCH (3 h): 21.6 pg
MCHC (3 h): 32.9%
MCV (3 h): 65.9 fL
Mono (3 h): 9.8%
Neu (3 h): 14.6%
PT (3 h): 12 s
Plat (3 h): 109.7 x10_4/uL
RBC (3 h): 614.2 x10_4/ul
Ret (3 h): 8.9%
WBC (3 h): 93.4 x10_2/uL
KIDNEY_L (3 h): 1 g
KIDNEY_R (3 h): 1 g
KIDNEY_TOTAL (3 h): 1.9 g
LIVER (3 h): 10 g
A/G (3 h): 2
ALP (3 h): 719.2 IU/L
ALT (3 h): 83.4 IU/L
AST (3 h): 70.2 IU/L
BUN (3 h): 22.8 mg/dL
CRE (3 h): 0.6 mg/dL
Ca (3 h): 10.3 mg/dL
Cl (3 h): 106.8 meq/L
DBIL (3 h): 0.022 mg/dL
GLC (3 h): 201 mg/dL
IP (3 h): 9 mg/dL
K (3 h): 4.9 meq/L
LDH (3 h): 103.4 IU/L
Na (3 h): 138.6 meq/L
PL (3 h): 125.4 mg/dL
RALB (3 h): 3.6 g/dL
TBIL (3 h): 0.3 mg/dL
TC (3 h): 73.2 mg/dL
TG (3 h): 59.4 mg/dL
TP (3 h): 5.4 g/dL
gamma-GTP (3 h): 2.4 IU/L
TERMINAL_BW (6 h): 215.5 g
APTT (6 h): 16.6 s
Bas (6 h): 0%
Eos (6 h): 1.2%
Fbg (6 h): 211.2 mg/dL
Hb (6 h): 13.3 g/dL
Ht (6 h): 40.9%
Lym (6 h): 75.4%
MCH (6 h): 21.2 pg
MCHC (6 h): 32.7%
MCV (6 h): 64.8 fL
Mono (6 h): 7.4%
Neu (6 h): 16.2%
PT (6 h): 11.9 s
Plat (6 h): 113.3 x10_4/uL
RBC (6 h): 632.4 x10_4/ul
Ret (6 h): 8.3%
WBC (6 h): 96.5 x10_2/uL
KIDNEY_L (6 h): 1 g
KIDNEY_R (6 h): 1 g
KIDNEY_TOTAL (6 h): 2 g
LIVER (6 h): 9.1 g
A/G (6 h): 2.2
ALP (6 h): 701.6 IU/L
ALT (6 h): 82.8 IU/L
AST (6 h): 75.8 IU/L
BUN (6 h): 28.2 mg/dL
CRE (6 h): 0.6 mg/dL
Ca (6 h): 10.5 mg/dL
Cl (6 h): 107.2 meq/L
DBIL (6 h): 0.022 mg/dL
GLC (6 h): 207 mg/dL
IP (6 h): 9.5 mg/dL
K (6 h): 5.2 meq/L
LDH (6 h): 100.8 IU/L
Na (6 h): 138 meq/L
PL (6 h): 126.2 mg/dL
RALB (6 h): 3.6 g/dL
TBIL (6 h): 0.5 mg/dL
TC (6 h): 68.2 mg/dL
TG (6 h): 36.8 mg/dL
TP (6 h): 5.2 g/dL
gamma-GTP (6 h): 1.6 IU/L
TERMINAL_BW (9 h): 218.5 g
APTT (9 h): 16.2 s
Bas (9 h): 0%
Eos (9 h): 1%
Fbg (9 h): 208.8 mg/dL
Hb (9 h): 12.7 g/dL
Ht (9 h): 39.2%
Lym (9 h): 78.6%
MCH (9 h): 22.1 pg
MCHC (9 h): 32.4%
MCV (9 h): 68.3 fL
Mono (9 h): 4.2%
Neu (9 h): 16.2%
PT (9 h): 11.6 s
Plat (9 h): 111.9 x10_4/uL
RBC (9 h): 575.2 x10_4/ul
Ret (9 h): 9.9%
WBC (9 h): 91.7 x10_2/uL
KIDNEY_L (9 h): 1 g
KIDNEY_R (9 h): 1 g
KIDNEY_TOTAL (9 h): 1.9 g
LIVER (9 h): 8.5 g
A/G (9 h): 1.8
ALP (9 h): 827.2 IU/L
ALT (9 h): 56.2 IU/L
AST (9 h): 65.6 IU/L
BUN (9 h): 40.8 mg/dL
CRE (9 h): 0.5 mg/dL
Ca (9 h): 10.9 mg/dL
Cl (9 h): 109 meq/L
DBIL (9 h): 0.032 mg/dL
GLC (9 h): 196.4 mg/dL
IP (9 h): 11.1 mg/dL
K (9 h): 5.8 meq/L
LDH (9 h): 66 IU/L
Na (9 h): 138.8 meq/L
PL (9 h): 133.8 mg/dL
RALB (9 h): 3.4 g/dL
TBIL (9 h): 0.4 mg/dL
TC (9 h): 76 mg/dL
TG (9 h): 26 mg/dL
TP (9 h): 5.3 g/dL
gamma-GTP (9 h): 1.8 IU/L
TERMINAL_BW (24 h): 231.8 g
APTT (24 h): 16.2 s
Bas (24 h): 0%
Eos (24 h): 1.2%
Fbg (24 h): 215.6 mg/dL
Hb (24 h): 12.8 g/dL
Ht (24 h): 38.7%
Lym (24 h): 72.2%
MCH (24 h): 21.6 pg
MCHC (24 h): 33%
MCV (24 h): 65.4 fL
Mono (24 h): 13%
Neu (24 h): 13.8%
PT (24 h): 10.9 s
Plat (24 h): 115.6 x10_4/uL
RBC (24 h): 592.6 x10_4/ul
Ret (24 h): 9.2%
WBC (24 h): 103.4 x10_2/uL
KIDNEY_L (24 h): 1 g
KIDNEY_R (24 h): 1 g
KIDNEY_TOTAL (24 h): 2 g
LIVER (24 h): 12.5 g
A/G (24 h): 2
ALP (24 h): 1036 IU/L
ALT (24 h): 34.4 IU/L
AST (24 h): 60 IU/L
BUN (24 h): 20 mg/dL
CRE (24 h): 0.5 mg/dL
Ca (24 h): 11.3 mg/dL
Cl (24 h): 104.4 meq/L
DBIL (24 h): 0 mg/dL
GLC (24 h): 207.4 mg/dL
IP (24 h): 8.9 mg/dL
K (24 h): 4.8 meq/L
LDH (24 h): 101.6 IU/L
Na (24 h): 138.6 meq/L
PL (24 h): 170.6 mg/dL
RALB (24 h): 3.8 g/dL
TBIL (24 h): 0.4 mg/dL
TC (24 h): 89.6 mg/dL
TG (24 h): 132.4 mg/dL
TP (24 h): 5.6 g/dL
gamma-GTP (24 h): 2.2 IU/L
